Where two headings read alike, the source gives them in different places.
Tests used:
STEP-46 = target: T1, STEP-46 (Homo sapiens, UniProt P54829); assay: STEP-46 pNPP counterscreen; format: biochemical; conditions: pNPP assay, FIG. 15; read-out: IC50 against STEP-46
T1 sequence (P54829 1-565): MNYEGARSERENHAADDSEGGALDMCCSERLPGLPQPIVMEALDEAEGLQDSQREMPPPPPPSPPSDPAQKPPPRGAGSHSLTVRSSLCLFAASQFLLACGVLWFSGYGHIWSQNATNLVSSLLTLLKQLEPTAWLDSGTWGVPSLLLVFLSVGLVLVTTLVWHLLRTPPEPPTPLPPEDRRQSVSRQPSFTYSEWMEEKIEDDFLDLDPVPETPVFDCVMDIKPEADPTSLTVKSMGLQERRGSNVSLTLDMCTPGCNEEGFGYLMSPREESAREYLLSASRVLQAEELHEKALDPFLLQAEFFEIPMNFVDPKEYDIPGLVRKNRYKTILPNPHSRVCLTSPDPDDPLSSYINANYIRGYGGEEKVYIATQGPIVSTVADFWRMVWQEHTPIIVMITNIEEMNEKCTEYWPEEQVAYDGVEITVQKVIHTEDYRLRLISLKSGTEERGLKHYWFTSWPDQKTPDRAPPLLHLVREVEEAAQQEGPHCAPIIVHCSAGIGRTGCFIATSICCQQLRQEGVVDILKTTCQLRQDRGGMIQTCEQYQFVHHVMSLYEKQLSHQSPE
Method: (§1) To test for 1 activity on STEP-46, a pNPP assay was employed with 1.5 μM STEP46 and 10 mM pNPP. After 30 min at room temperature, absorbance at 405 nm was measured. For comparison, MKP5-CD was tested in the pNPP assay under identical conditions. For PTP1B, the Millipore PTP1B assay kit (#539736) was performed as recommended by the manufacturer except that malachite green was used for detection.

MKP5-CD [1] = target: T2, MKP5-CD (Homo sapiens, UniProt Q9Y6W6); assay: Phosphate sensor kinetic assay with full-length p38α MAPK as substrate; format: biochemical; conditions: 25 μM inhibitor, varying p38α MAPK
T2 construct: The catalytic domain of MKP5 (MKP5-CD, residues 320-467) was inserted into a pET-28a vector; His-tag (N, cleaved yes); made in house; host or cells: E. coli BL21 (DE3)
T2 sequence (Q9Y6W6 320-467): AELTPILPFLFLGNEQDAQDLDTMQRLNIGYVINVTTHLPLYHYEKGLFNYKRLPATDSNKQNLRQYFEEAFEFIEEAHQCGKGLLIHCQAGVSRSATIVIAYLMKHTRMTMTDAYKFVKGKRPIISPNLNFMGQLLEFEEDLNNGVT
Method: The phosphate sensor protein (PS) was purchased from Life Technologies (Lot #1962036B). To characterize the activity of MKP5-CD against full length p38α MAPK, 5 nM MKP5-CD and 0.5 μM PS were combined in 50 mM Tris (pH 7.6), 25 mM NaCl, 0.01% Triton X100 and […] and added to a Corning #4511 384-well plate. Using an Echo 550 liquid handler (LabCyte Inc.), either 25 μM compound 1 or neat DMSO were added to a final DMSO concentration of 0.2%. Reactions were initiated with up to 300 μM p38α MAPK, a concentration approximately 5 times the KM of MKP5-CD39, and allowed to proceed at ambient temperature for 20 minutes. Fluorescence was continuously monitored by Tecan Infinite M1000 with excitation at 425 f 5 nm and emission at 454 f 5 nm. Raw fluorescence was converted to phosphate release using a standard curve generated the same day as kinetic experiments. The initial velocity was determined for each well based on reaction progress in the first 120 seconds. These velocities were then plotted against substrate concentration and fit to a mixed-mechanism inhibition curve.

ERK1/2 [2] = assay: ERK1/2 phosphorylation in wild type MEFs; format: cell-based, mouse
Method: (§2) C2C12 myoblasts were cultured as described previously. Substantively, wild type (mkp-5^+/+) and MKP5-deficient (mkp-5^−/−) mouse embryo fibroblasts (MEFs) were generated from female mice at days 13-14 of pregnancy and established by spontaneous immortalization. C2C12 myoblasts and MEFs were treated with 1 at the indicated concentrations for 24 h. For immunoblotting, C2C12 myoblasts or MKP5 wild type and MKP5-deficient fibroblasts were lysed on ice in lysis buffer and clarified by centrifugation at 20,800×g at 4° C. for 20 min. Protein concentration was determined using BCA reagent according to the manufacturer's instructions (Pierce). Recombinant human TGF-β1 (240-B-002) was purchased from R&D Systems. For phospho-MAPK and MAPK immunoblotting, lysates were resolved by SDS-PAGE and transferred onto nitrocellulose membranes (Bio-Rad). Membranes were blocked with 5% nonfat dry milk or 5% BSA in Tris-buffered saline/Tween 20 (TBS-T) for 1 h at room temperature or overnight at 4° C. Primary antibodies were diluted in 5% BSA or 5% nonfat dry milk in TBS-T. MAPK and Smad2 activation were calculated as the ratio of the indicated phosphorylated MAPK or phosphorylated Smad2 to total MAPK or Smad2, respectively by direct fluorescence quantitation using the Odyssey CLx Imaging System. Images were processed with the LI-COR Image Studio Software.

JNK [3] = assay: JNK phosphorylation in wild type MEFs; format: cell-based, mouse
Method: as §2

p38α MAPK [4] = assay: p38α MAPK activation in C2C12 myoblasts (pMAPK/MAPK immunoblot); format: cell-based, mouse
Method: as §2

JNK [5] = assay: JNK activation in C2C12 myoblasts (pMAPK/MAPK immunoblot); format: cell-based, mouse
Method: as §2

ERK1/2 [6] = assay: ERK1/2 activation in C2C12 myoblasts (pMAPK/MAPK immunoblot); format: cell-based, mouse; conditions: even at the highest concentration
Method: as §2

MKP5-CD [7] = target: T2, MKP5-CD; assay: Microscale thermophoresis binding assay; conditions: fluorescently-labeled MKP5-CD, FIG. 1D; read-out: dissociation constant (Kd)
Method: (§3) Binding interactions between MKP5-CD and 1 were carried out using microscale thermophoresis (MST) on a Monolith NT.115Pico instrument. MKP5-CD was labeled for MST using NanoTemper Monolith NTTM Protein Labeling Kit RED-NHS 2nd Generation (#MO-L011). Briefly, MKP5-CD was transferred into the provided labeling buffer and diluted to 20 μM. Dye was added in a 2-fold molar excess and allowed to incubate 30 minutes at room temperature. Excess dye was removed using the provided column equilibrated in 50 mM Tris pH 8.0, 150 mM NaCl, 0.05% Tween-20. A fixed amount of labeled wild-type or mutant MKP5-CD was combined with up to 200 μM 1 and loaded into premium capillaries. MST experiments were carried out at 40% IR power for 20 seconds. Normalized fluorescence (Fnorm) values at a given time were plotted against inhibitor concentration, and the Kd was determined by fitting with a hyperbolic binding curve. Experiments were performed in triplicate and data are presented as means±SD.

PTP-1B = target: T3, PTP-1B (Homo sapiens, UniProt P18031); assay: PTP1B counterscreen (Millipore kit, malachite green detection); format: biochemical; conditions: FIG. 15; read-out: IC50 against PTP-1B
T3 construct: purchased Millipore 539736
T3 sequence (P18031 1-435): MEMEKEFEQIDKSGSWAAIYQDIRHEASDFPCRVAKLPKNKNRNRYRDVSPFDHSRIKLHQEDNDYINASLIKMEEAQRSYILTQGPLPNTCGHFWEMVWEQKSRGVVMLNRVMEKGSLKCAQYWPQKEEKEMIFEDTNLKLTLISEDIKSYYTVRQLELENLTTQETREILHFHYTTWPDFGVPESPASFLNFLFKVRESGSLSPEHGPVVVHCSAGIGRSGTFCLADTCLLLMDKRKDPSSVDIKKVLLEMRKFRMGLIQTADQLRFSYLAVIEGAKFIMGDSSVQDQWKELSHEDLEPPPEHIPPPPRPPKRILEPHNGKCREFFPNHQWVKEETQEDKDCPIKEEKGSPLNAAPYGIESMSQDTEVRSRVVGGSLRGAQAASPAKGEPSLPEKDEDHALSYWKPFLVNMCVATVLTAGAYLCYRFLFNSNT
Method: as §1

Smad2 = assay: TGF-β1-mediated Smad2 phosphorylation in wild type MEFs; format: cell-based, mouse; conditions: TGF-β1 1 ng/ml 10 minutes
Method: as §2

[8] = target: T4, MKP5-CD (catalytic domain of MKP5, residues 320-467) (Homo sapiens, UniProt Q9Y6W6); assay: Malachite green phosphatase assay of MKP5-CD with p38α MAPK phosphopeptide substrate; format: biochemical
T4 construct: The catalytic domain of MKP5 (MKP5-CD, residues 320-467) was inserted into a pET-28a vector; His-tag (N, cleaved yes); made in house; host or cells: E. coli BL21 (DE3)
T4 sequence (Q9Y6W6 320-467): T2 sequence (Q9Y6W6 320-467)
Method: A small molecule collection was screened for activity against MKP5-CD using a malachite green assay in 384-well format. MKP5-CD and p38α MAPK phosphopeptide (DDE(Nle)(pT)G(pY)VATR) substrate were diluted into PTP buffer (50 mM Tris pH 7.2, 1 mM EDTA, 0.1% β-mercaptoethanol, 0.01% Triton X-100). The screen was performed in two distinct phases. An initial screen against a subset of the compound library was carried out in the following conditions: 1.5 μM MKP5-CD, 25 μM phosphopeptide, 30 min at 37° C. A second follow-up screen was performed with the following modifications: 0.5 μM MKP5-CD, 50 μM phosphopeptide, 15 min at 30° C. Test compounds (20 nL) were dispensed with either an Aquarius (Tecan) pintool system (initial phase) or Echo 550 (Labcyte) acoustic dispenser (follow-up phase). In both phases, the test compound concentration was 20 μM in the 10 μL reaction and the final DMSO was 0.2%. […] The plate was incubated for 10-15 min at room temperature to allow color development and absorbance at 620 nm measured. The signal-to-background (S/B) ratio was calculated from the mean absorbance of vehicle-treated wells with and without enzyme (negative and positive controls; n=32 per condition). Percent inhibition of test wells was calculated from the mean positive and negative controls on each plate. […]

p38α MAPK [9] = assay: p38α MAPK phosphorylation in wild type MEFs; format: cell-based, mouse
Method: as §2

[10] = target: T5, catalytic domain of MKP1 (MKP1-CD) (Homo sapiens, UniProt P28562); assay: Malachite green assay of MKP1-CD; format: biochemical
T5 construct: MKP1-CD (human aa 172-314); purchased ARVYS Proteins (Trumbull, CT)
T5 sequence (P28562 172-314): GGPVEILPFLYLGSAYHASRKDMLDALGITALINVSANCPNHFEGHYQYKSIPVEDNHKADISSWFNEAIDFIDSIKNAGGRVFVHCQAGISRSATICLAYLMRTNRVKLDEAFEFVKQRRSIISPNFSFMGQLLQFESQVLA
Method: Compound 1 selected from the screen was tested for activity against MKP1 and MKP5 using the malachite green assay. For MKP5-CD, the same conditions for the screening assay were used. For MKP1-CD, the following conditions were used: 1 μM MKP1-CD, 50 μM pTpY, 120 min at 30° C.

[11] = tested on: MKP5-CD Y435A, Y435S, Y435W mutants; assay: Binding and inhibition of Tyr435 mutant MKP5-CD constructs; format: biochemical; conditions: FIG. 3C
Method: The catalytic domain of MKP5 (MKP5-CD, residues 320-467) was inserted into a pET-28a vector for expression. Mutant constructs were generated according to the QuikChange II (Agilent) site directed mutagenesis protocol. Constructs were transformed into BL21 (DE3) cells and grown in LB containing 100 μg/mL kanamycin to an OD of 0.8. Protein expression was induced with 1 mM IPTG, and cells were harvested after overnight incubation at 22° C.
as §3, with “Experiments were performed in triplicate and data are presented as means±SD.” left out

CSc1scc2c1-c1nc(SCC(=O)C(C)(C)C)ncc1CC2 [Compound 1, 3,3-Dimethyl-1-((9-(methylthio)-5,6-dihydrothieno[3,4-h]quinazolin-2-yl)thio)butan-2-one]
IC50 (STEP-46): > 200 µM | mode of inhibition (MKP5-CD [1]): mixed competitive mode of inhibition | α of mixed-mechanism inhibition fit (MKP5-CD [1]): ≈ 4.6 | phosphorylation of ERK1/2 (ERK1/2 [2]): not ERK1/2 | phosphorylation of JNK (JNK [3]): dose-dependent increase | activation of p38α MAPK (p38α MAPK [4]; 24 h): increased in a dose-dependent manner | induction of p38α MAPK activity (p38α MAPK [4]; highest concentration): 2.0 fold | JNK activation (JNK [5]; 24 h): increased upon treatment of C2C12 myoblasts but with less effectiveness as compared with p38 MAPK | induction of JNK activity (JNK [5]; highest concentration): 1.4 fold | activation status of ERK1/2 (ERK1/2 [6]): did not alter | Kd (MKP5-CD [7]): 1 ± 0.2 µM | IC50 (PTP-1B): > 100 µM | TGF-β1-mediated Smad2 phosphorylation (Smad2): inhibited | IC50 [8]: ~4.2 µM | IC50 ([8]; resynthesized compound, p38α MAPK phosphopeptide substrate, FIG. 1E, read-out: IC50 against MKP5-CD): 3.9 ± 0.6 µM | phosphorylation of p38α MAPK (p38α MAPK [9]): dose-dependent increase | IC50 ([10]; FIG. 1F, read-out: IC50 towards the catalytic domain of MKP1): > 60 µM | reduction in potency for MKP1 relative to MKP5 ([10]; MKP1 versus MKP5): 16 fold | binding to and inhibition of Tyr435 mutants [11]: only capable of binding to and inhibiting the activity of the Y435W mutant

Reference: patent publication US12570670B2, “Compounds, compositions, and methods for treating fibrosis” (YALE UNIVERSITY, priority 2019, dated 2026)
